Test [1] deals with T1, mouse Siglec-2-Fc-Avi (CD22) (Mus musculus, UniProt P35329).
T1 construct: made in house
T1 sequence (P35329 22-708 limits assumed): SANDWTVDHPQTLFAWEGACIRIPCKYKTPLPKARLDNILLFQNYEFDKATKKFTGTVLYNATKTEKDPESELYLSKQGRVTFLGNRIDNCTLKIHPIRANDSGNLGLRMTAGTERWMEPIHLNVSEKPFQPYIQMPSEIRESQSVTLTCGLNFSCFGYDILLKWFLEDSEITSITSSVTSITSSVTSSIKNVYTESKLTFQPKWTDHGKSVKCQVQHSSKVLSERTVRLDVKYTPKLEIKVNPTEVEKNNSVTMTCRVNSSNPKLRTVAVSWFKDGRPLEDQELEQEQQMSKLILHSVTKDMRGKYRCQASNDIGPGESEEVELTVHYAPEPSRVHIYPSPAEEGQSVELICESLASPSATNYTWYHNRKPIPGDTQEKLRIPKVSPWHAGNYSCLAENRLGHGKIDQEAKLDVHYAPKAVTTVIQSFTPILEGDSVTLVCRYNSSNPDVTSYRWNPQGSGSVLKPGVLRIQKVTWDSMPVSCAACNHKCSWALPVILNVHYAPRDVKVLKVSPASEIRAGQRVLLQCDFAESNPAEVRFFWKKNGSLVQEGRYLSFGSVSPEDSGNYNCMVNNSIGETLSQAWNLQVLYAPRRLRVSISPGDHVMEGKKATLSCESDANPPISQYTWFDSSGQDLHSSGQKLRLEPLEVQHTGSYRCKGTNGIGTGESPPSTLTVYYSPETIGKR
Description: SPR binding affinity to mouse CD22. Particulars: steady-state analysis. In short, it runs like this:
(§1)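 Native sialic acid residues are removed from the receptor enzymatically (4 hours at 37° C.) prior to streptavidin capture of the biotinylated protein. Ligand compounds then flow over in HEPES-buffered saline, pH 7.5, containing 0.05% Tween-20 and 1% DMSO, and binding is evaluated at steady state.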
In general terms: In SPR one partner is held on a chip, and binding of the other changes the refractive index at the surface.

The target of test [2] is T2, human Siglec-2/CD22 protein (Homo sapiens, UniProt P20273).
T2 construct: purchased Acro Biosystems SI2-H82E3
T2 sequence (P20273 20-847): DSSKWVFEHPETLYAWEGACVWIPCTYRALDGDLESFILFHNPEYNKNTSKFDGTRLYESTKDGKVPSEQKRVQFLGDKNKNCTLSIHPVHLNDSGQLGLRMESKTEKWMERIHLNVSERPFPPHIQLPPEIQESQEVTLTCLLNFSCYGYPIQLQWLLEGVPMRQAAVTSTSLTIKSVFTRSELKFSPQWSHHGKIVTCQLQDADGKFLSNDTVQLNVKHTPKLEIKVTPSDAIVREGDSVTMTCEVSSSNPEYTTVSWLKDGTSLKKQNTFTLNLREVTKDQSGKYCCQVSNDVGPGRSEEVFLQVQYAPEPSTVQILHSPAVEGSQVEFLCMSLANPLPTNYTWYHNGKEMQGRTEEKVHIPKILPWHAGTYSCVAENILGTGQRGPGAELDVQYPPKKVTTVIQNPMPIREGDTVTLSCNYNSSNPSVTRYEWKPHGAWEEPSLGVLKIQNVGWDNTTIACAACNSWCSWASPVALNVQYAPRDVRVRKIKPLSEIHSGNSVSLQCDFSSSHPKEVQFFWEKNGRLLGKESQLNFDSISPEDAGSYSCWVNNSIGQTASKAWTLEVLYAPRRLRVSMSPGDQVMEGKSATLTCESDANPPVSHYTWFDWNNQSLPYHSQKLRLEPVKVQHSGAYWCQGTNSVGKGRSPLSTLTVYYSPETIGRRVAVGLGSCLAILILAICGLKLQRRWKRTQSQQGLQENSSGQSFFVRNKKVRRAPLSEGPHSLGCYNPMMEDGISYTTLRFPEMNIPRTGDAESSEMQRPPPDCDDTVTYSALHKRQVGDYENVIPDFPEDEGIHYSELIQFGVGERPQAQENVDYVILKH
The test is described as follows: SPR binding affinity to human CD22. Particulars: steady-state analysis. In short, it runs like this:
as §1

Another test deals with cynomolgus Siglec-2/CD22 (Macaca fascicularis, UniProt A0A2K5WCZ6). Description: biochemical. The class given is binding. Particulars: SPR, steady-state analysis; read-out: Affinity cyno CD22. In short, it runs like this:
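SPR with desialylated (SialoExo, 4 h, 37° C.) cynomolgus CD22 amine-coupled to a CM5 chip. Running buffer 10 mM HEPES, 150 mM NaCl, 0.05% Tween-20, pH 7.5, 1% DMSO, with solvent correction; 120 s dissociation. Affinities from steady-state analysis.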

cynomolgus Siglec-2/CD22, sequence (A0A2K5WCZ6 entry or part of it): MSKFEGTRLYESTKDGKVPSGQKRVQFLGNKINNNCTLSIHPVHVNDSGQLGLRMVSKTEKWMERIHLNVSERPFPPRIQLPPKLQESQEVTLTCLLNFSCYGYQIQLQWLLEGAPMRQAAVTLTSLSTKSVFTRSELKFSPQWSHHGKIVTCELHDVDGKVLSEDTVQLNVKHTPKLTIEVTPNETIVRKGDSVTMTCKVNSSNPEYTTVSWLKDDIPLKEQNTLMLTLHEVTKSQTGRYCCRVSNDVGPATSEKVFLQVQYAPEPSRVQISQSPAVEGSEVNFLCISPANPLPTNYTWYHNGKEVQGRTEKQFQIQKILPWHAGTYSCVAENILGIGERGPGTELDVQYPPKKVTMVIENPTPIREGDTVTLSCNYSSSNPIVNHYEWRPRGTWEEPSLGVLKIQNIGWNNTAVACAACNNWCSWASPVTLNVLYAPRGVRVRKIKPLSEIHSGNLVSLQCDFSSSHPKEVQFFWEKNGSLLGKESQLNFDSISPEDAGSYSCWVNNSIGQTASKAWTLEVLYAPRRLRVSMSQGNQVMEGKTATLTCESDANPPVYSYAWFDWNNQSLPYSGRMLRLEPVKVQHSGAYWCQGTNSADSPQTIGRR

For the compound `C#CCOCCOCCO[C@]1(C(=O)O)C[C@H](O)[C@@H](NC(=O)CO)[C@H]([C@H](O)[C@H](O)CNC(=O)Cc2cc(F)cc(C(F)(F)F)c2)O1` [Compound 133, (2R,4S,5R,6R)-6-((1R,2R)-3-(2-(3-fluoro-5-(trifluoromethyl)phenyl)acetamido)-1,2-dihydroxypropyl)-4-hydroxy-5-(2-hydroxyacetamido)-2-(2-(2-(prop-2-yn-1-yloxy)ethoxy)ethoxy)tetrahydro-2H-pyran-2-carboxylic acid], the values for the Kd (in test [1]; in test [2]; on cynomolgus Siglec-2/CD22) were above 10000 nM, below 1000 nM and below 1000 nM, respectively.
As to `C#CCOCCOCCO[C@]1(C(=O)O)C[C@H](O)[C@@H](NC(=O)CO)[C@H]([C@H](O)[C@H](O)CNC(=O)Cc2ccc(Cl)c(O)c2)O1` [Compound 134, (2R,4S,5R,6R)-6-((1R,2R)-3-(2-(4-chloro-3-hydroxyphenyl)acetamido)-1,2-dihydroxypropyl)-4-hydroxy-5-(2-hydroxyacetamido)-2-(2-(2-(prop-2-yn-1-yloxy)ethoxy)ethoxy)tetrahydro-2H-pyran-2-carboxylic acid], the Kd was 1000 to 10000 nM in test [1], below 1000 nM in test [2] and below 1000 nM on cynomolgus Siglec-2/CD22.
`C#CCCOc1ccc(CO[C@]2(C(=O)O)C[C@H](O)[C@@H](NC(=O)CO)[C@H]([C@H](O)[C@H](O)CNC(=O)Cc3ccc(Cl)c(O)c3)O2)cc1` [Compound 135, (2R,4S,5R,6R)-2-((4-(but-3-yn-1-yloxy)benzyl)oxy)-6-((1R,2R)-3-(2-(4-chloro-3-hydroxyphenyl)acetamido)-1,2-dihydroxypropyl)-4-hydroxy-5-(2-hydroxyacetamido)tetrahydro-2H-pyran-2-carboxylic acid]: the Kd (in test [1]; in test [2]; at cynomolgus Siglec-2/CD22) was below 1000 nM throughout.
As for `C#CCCOc1ccc(CO[C@]2(C(=O)O)C[C@H](O)[C@@H](NC(=O)CO)[C@H]([C@H](O)[C@H](O)CNC(=O)Cc3ccc(O)c(Cl)c3)O2)cc1` [Compound 136, (2R,4S,5R,6R)-2-((4-(but-3-yn-1-yloxy)benzyl)oxy)-6-((1R,2R)-3-(2-(3-chloro-4-hydroxyphenyl)acetamido)-1,2-dihydroxypropyl)-4-hydroxy-5-(2-hydroxyacetamido)tetrahydro-2H-pyran-2-carboxylic acid], the Kd in test [1] is 1000 to 10000 nM; in test [2], below 1000 nM; at cynomolgus Siglec-2/CD22, below 1000 nM.
Turning to `C#CCCOc1ccc(CO[C@]2(C(=O)O)C[C@H](O)[C@@H](NC(=O)CO)[C@H]([C@H](O)[C@H](O)CNC(=O)Cc3ccc(N4CCC(NC(C)=O)CC4)cc3)O2)cc1` [Compound 137, (2R,4S,5R,6R)-6-((1R,2R)-3-(2-(4-(4-acetamidopiperidin-1-yl)phenyl)acetamido)-1,2-dihydroxypropyl)-2-((4-(but-3-yn-1-yloxy)benzyl)oxy)-4-hydroxy-5-(2-hydroxyacetamido)tetrahydro-2H-pyran-2-carboxylic acid], the figures for the Kd (in test [1]; in test [2]; on cynomolgus Siglec-2/CD22) were above 10000 nM, above 10000 nM and 1000 to 10000 nM, respectively.
On to `C#CCCOc1ccc(CO[C@]2(C(=O)O)C[C@H](O)[C@@H](NC(=O)CO)[C@H]([C@H](O)[C@H](O)CNC(=O)Cc3ccccc3N3CCOCC3)O2)cc1` [Compound 138, (2R,4S,5R,6R)-2-((4-(but-3-yn-1-yloxy)benzyl)oxy)-6-((1R,2R)-1,2-dihydroxy-3-(2-(2-morpholinophenyl)acetamido)propyl)-4-hydroxy-5-(2-hydroxyacetamido)tetrahydro-2H-pyran-2-carboxylic acid], for which the Kd in test [1] was 1000 to 10000 nM; in test [2] it was 1000 to 10000 nM; at cynomolgus Siglec-2/CD22, below 1000 nM.
Consider `C#CCCOc1ccc(CO[C@]2(C(=O)O)C[C@H](O)[C@@H](NC(=O)CO)[C@H]([C@H](O)[C@H](O)CNC(=O)Cc3cccc(N4CCOCC4)c3)O2)cc1` [Compound 140, (2R,4S,5R,6R)-2-((4-(but-3-yn-1-yloxy)benzyl)oxy)-6-((1R,2R)-1,2-dihydroxy-3-(2-(3-morpholinophenyl)acetamido)propyl)-4-hydroxy-5-(2-hydroxyacetamido)tetrahydro-2H-pyran-2-carboxylic acid], for which the Kd (in test [1]; in test [2]; at cynomolgus Siglec-2/CD22) was 1000 to 10000 nM each time.
In the case of `C#CCCCCCCS[C@]1(C(=O)O)C[C@H](O)[C@@H](NC(=O)CO)[C@H]([C@H](O)[C@H](O)CNC(=O)Cc2cccc(O)c2)O1` [Compound 141, (2S,4S,5R,6R)-6-((1R,2R)-1,2-dihydroxy-3-(2-(3-hydroxyphenyl)acetamido)propyl)-4-hydroxy-5-(2-hydroxyacetamido)-2-(oct-7-yn-1-ylthio)tetrahydro-2H-pyran-2-carboxylic acid], the Kd in test [1] is below 1000 nM; in test [2] it was below 1000 nM; at cynomolgus Siglec-2/CD22, 1000 to 10000 nM.
On to `C#Cc1ccc(CO[C@]2(C(=O)O)C[C@H](O)[C@@H](NC(=O)CO)[C@H]([C@H](O)[C@H](O)CNC(=O)Cc3cccc(O)c3)O2)cc1` [Compound 142, (2R,4S,5R,6R)-6-((1R,2R)-1,2-dihydroxy-3-(2-(3-hydroxyphenyl)acetamido)propyl)-2-((4-ethynylbenzyl)oxy)-4-hydroxy-5-(2-hydroxyacetamido)tetrahydro-2H-pyran-2-carboxylic acid], for which the Kd (in test [1]; in test [2]; on cynomolgus Siglec-2/CD22) was below 1000 nM each time.
In the case of `O=C(O)CCCCCCO[C@]1(C(=O)O)C[C@H](O)[C@@H](NC(=O)CO)[C@H]([C@H](O)[C@H](O)CNC(=O)Cc2cccc(O)c2)O1` [Compound 143, (2R,4S,5R,6R)-2-((6-carboxyhexyl)oxy)-6-((1R,2R)-1,2-dihydroxy-3-(2-(3-hydroxyphenyl)acetamido)propyl)-4-hydroxy-5-(2-hydroxyacetamido)tetrahydro-2H-pyran-2-carboxylic acid], the Kd is 1000 to 10000 nM in test [1], below 1000 nM in test [2] and below 1000 nM at cynomolgus Siglec-2/CD22.
For the compound `C#CCOCCCCCCO[C@]1(C(=O)O)C[C@H](O)[C@@H](NC(=O)CO)[C@H]([C@H](O)[C@H](O)CNC(=O)Cc2cccc(O)c2)O1` [Compound 144, (2R,4S,5R,6R)-6-((1R,2R)-1,2-dihydroxy-3-(2-(3-hydroxyphenyl)acetamido)propyl)-4-hydroxy-5-(2-hydroxyacetamido)-2-((6-(prop-2-yn-1-yloxy)hexyl)oxy)tetrahydro-2H-pyran-2-carboxylic acid], the Kd in test [1] is 1000 to 10000 nM; in test [2], 1000 to 10000 nM; on cynomolgus Siglec-2/CD22 it was below 1000 nM.
As to `C#CCOc1ccc(CO[C@]2(C(=O)O)C[C@H](O)[C@@H](NC(=O)CO)[C@H]([C@H](O)[C@H](O)CNC(=O)Cc3ccccc3O)O2)cc1` [Compound 145, (2R,4S,5R,6R)-6-((1R,2R)-1,2-dihydroxy-3-(2-(2-hydroxyphenyl)acetamido)propyl)-4-hydroxy-5-(2-hydroxyacetamido)-2-((4-(prop-2-yn-1-yloxy)benzyl)oxy)tetrahydro-2H-pyran-2-carboxylic acid], the Kd (in test [1]; in test [2]; at cynomolgus Siglec-2/CD22) was 1000 to 10000 nM in each case.

(Values after patent US20250064941A1, “SIGLEC LIGANDS, CONJUGATES, AND METHODS OF USE THEREOF” (Osprey Biopharmaceuticals, Inc., priority 2023, published 2025).)
